Tested on: Triticum aestivum
Experiment: Damage to crop plant TRZAW, visual scoring vs untreated
Format: in vivo
Experimental: The examples given below were performed in the greenhouse and, in some cases, in field trials.
The herbicides, or combinations, were applied in cereals after the weeds had emerged naturally using plot sprayers. After application, the results, such as damage to the crop plants and effect on broad-leaved weeds/grass weeds were assessed by means of visual scoring. The herbicidal action was assessed qualitatively and quantitatively by comparing untreated and treated plots on the basis of the effect on plant growth and the development of chloroses and necroses down to the complete destruction of the weeds (0–100%). The application was effected when the crop plants and weeds were in the 2–4 leaf stage. The test was evaluated approximately 4 weeks after application.
In the greenhouse experiments, the crop plants and broadleaved weeds/grass weeds were grown in No. 13 pots and treated in the 2–4 leaf stage. The pots were subsequently placed in the greenhouse under good growth conditions (temperature, atmospheric humidity, water supply).
The assessments were carried out similarly to those in the field trials, i.e. visual scoring of the treated plants in comparison with untreated control variants. These assessments were carried out 3 weeks after applying the test preparations and their combinations. The experiments had been set up in two replications.

Measured: TRZAW % damage

COC(=O)c1ccc(I)cc1S(=O)(=O)NC(=O)Nc1nc(C)nc(OC)n1.[Na] [A), sodium salt of methyl 4-iodo-2-[3-(4-methoxy-6-methyl-1,3,5-triazin-2-yl)ureidosulfonyl]benzoate]
10%: Table 5, 20 g of a.i./ha | Table 7, 20 g of a.i./ha | Table 9, 20 g of a.i./ha
2%: Table 7, 10 g of a.i./ha | Table 9, 10 g of a.i./ha
18%: Table 5, 80 g of a.i./ha
15%: Table 5, 40 g of a.i./ha | Table 9, 40 g of a.i./ha
28%: Table 5, 160 g of a.i./ha
0%: Table 1, 3 g of a.i./ha | Table 1, 5 g of a.i./ha | Table 1, 10 g of a.i./ha | Table 1, 20 g of a.i./ha | Table 2, 3 g of a.i./ha | Table 2, 5 g of a.i./ha | Table 2, 10 g of a.i./ha | Table 2, 20 g of a.i./ha | Table 3, 3 g of a.i./ha | Table 3, 5 g of a.i./ha | Table 3, 10 g of a.i./ha | Table 3, 20 g of a.i./ha | Table 5, 2.5 g of a.i./ha | Table 5, 5 g of a.i./ha | Table 5, 10 g of a.i./ha | Table 7, 2.5 g of a.i./ha | Table 7, 5 g of a.i./ha | Table 9, 2.5 g of a.i./ha | Table 9, 5 g of a.i./ha

From US7074743B1, “Herbicidal composition comprising 4-iodo-2-[3-(4-methoxy-6-methyl-1,3,5-triazin-2-yl)ureidosulfonyl]benzoic esters” (priority 1995, dated 2006)
